Assay results as given in patent US12479840B2, “HMG-CoA reductase degradation inducing compound” (Uppthera, priority 2020, dated 2025).

Biological target: T1, HMG-CoA reductase (Homo sapiens, UniProt P04035)
T1 construct: endogenous in cells; host or cells: HepG2 (Korea Cell Line Bank)
T1 sequence (P04035 1-888): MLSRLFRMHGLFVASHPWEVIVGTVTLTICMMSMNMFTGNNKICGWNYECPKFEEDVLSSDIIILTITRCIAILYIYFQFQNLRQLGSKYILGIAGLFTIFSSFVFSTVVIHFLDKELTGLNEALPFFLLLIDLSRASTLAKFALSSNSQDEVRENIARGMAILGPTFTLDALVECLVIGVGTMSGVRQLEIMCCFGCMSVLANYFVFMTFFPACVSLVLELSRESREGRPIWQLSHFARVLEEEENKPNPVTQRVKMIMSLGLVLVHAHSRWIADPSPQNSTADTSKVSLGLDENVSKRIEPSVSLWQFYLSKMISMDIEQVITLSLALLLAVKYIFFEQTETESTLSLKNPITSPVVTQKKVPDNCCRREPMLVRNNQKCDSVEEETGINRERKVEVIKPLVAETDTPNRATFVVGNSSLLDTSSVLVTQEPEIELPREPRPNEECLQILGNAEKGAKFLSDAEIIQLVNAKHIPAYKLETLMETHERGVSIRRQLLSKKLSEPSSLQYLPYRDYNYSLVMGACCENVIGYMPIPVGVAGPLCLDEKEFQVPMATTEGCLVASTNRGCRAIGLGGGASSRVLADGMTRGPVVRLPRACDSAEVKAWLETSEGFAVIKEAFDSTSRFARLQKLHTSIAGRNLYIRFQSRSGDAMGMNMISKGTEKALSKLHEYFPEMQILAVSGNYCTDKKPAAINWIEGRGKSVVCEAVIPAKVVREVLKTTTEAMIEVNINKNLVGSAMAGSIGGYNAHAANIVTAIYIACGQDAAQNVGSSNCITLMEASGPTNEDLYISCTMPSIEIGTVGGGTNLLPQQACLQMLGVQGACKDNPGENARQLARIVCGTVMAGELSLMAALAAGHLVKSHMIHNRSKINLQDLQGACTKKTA
Assay: HMG-CoA reductase (HMGCR) degradation in HepG2 cells by western blotting
Type: cell-based
Settings: treated for 18 hours, ratio of HMG-CoA reductase to GAPDH, read-out: DC50
Procedure: HepG2, a human liver cancer cell line, was purchased from the Korea Cell Line Bank (KCLB), Seoul, Korea. The passage in cell culture was maintained at P105 to P110.
The compounds of the present invention were completely dissolved in DMSO and used in the experiment. 2×10^5 cells were seeded for each well of a 12-well plate (SPL), and the cells were cultured in the culture medium in a total volume of 2 ml. Each of the compounds of the present invention and comparative compounds was diluted three folds from the highest concentration of 3 μM to the lowest concentration in 10 points and treated for 18 hours.
Each of the compounds the present invention and comparative compounds was diluted three folds from the highest concentration of 3 μM to the lowest concentration of […] in 10 points and was treated for 18 hours.
For SDS-PAGE and Western blotting, 1×RIPA lysis buffer (Rockland, Cat. No. MB-030-0050; Lot no. 39751), 100× Protease Inhibitor Cocktail (Quartett, Cat. No. PPI1015; Lot no. PCO50038424), Pierce™ BCA protein assay kit (ThermoScientific, Cat. No. 23225; Lot no. UC276876), albumin standard (ThermoScientific, Cat. No. 23209; Lot no. UB269561), 4-15% Mini-PROTEAN TGX stain-free gel (Bio-rad, Cat. No. 4568085; Lot no. L007041B), 10× Tris/Glycine/SDS buffer (Bio-rad, Cat. No. 1610732; Lot no. 10000044375B); 10×TBS (Bio-rad, Cat. No. 1706435; Lot no. 1000045140B), 10% Tween 20 (Cat. No. 1610781; Lot no. L004152B), Color protein standard broad range (NEB, Cat. No. P7719S; Lot no. 10040349), 4× Laemmli sample buffer (Bio-rad, Cat. No. 1610747; Lot no. L004133B), β-mercaptoethanol (Sigma-Aldrich, Cat. No. M3148; Lot no. 60-24-2), SuperBlock™ T20 (TBS) blocking buffer (ThermoScientific, Cat. No. 37536; Lot no. UC282578), 1M sodium azide solution (Sigma-Aldrich, Cat. No. 08591-1 mL-F; Lot no. BCBV4989), α-Rabbit pAb to Ms IgG (abcam, Cat. No. ab97046; Lot no. GR3252115-1), α-Goat pAb to Rb IgG (CST, Cat. No. 7074S; Lot no. 28), α-GAPDH (abcam, Cat. No. ab8245), α-HMGCR (GeneTex, Cat. No. GTX54088; Lot no. 821903509), ECL™ Prime western blotting reagents (GE Healthcare, Cat. No. RPN2232; Lot no. 17001655), Ponceau S solution (Sigma-Aldrich, Cat. No. P7170; Lot no. SLBV4112), Difco™ Skim milk (BD, Cat. No. 232100; Lot no. 8346795), and iBlot® 2 NC Regular stacks (Invitrogen, Cat. No. IB23001; Lot no. 2NR110619-02), were used.
For cell harvesting, the cells were first separated from the plate using trypsin and then washed with the medium and PBS. Specifically, the medium was suctioned off and washed with 1 mL of PBS, and PBS was suctioned off. The cells were treated with 0.5 mL TrypLE™ Express at 37° C. for 7 minutes to separate the cells, and then 0.5 mL of complete medium was added to collect 1 mL of cell culture solution. Then, 1 mL of the cell collection solution was centrifuged at 8,000 rpm for 120 seconds, and the supernatant was removed. After washing with 0.2 mL of PBS, the PBS was removed.
For cell lysis, a lysis buffer was added and cell debris was removed to obtain a cell lysate. Specifically, the cells were treated with 70 μL of 1×RIPA buffer containing a protease inhibitor and incubated for 30 minutes on ice. Then, the cells were centrifuged at 4° C. and 15,000 rpm for 10 minutes to obtain a cell lysate.
Then, a standard curve was obtained using the BCA assay, and the protein mass in the lysate was quantified by substituting the curve. The mixture was incubated at 37° C. for 30 minutes using 20 μL of standard or sample solution, and 200 μL of BCA or Bradford solution, and measured at 562 nm absorbance. Samples were prepared by adding 4× sample buffer so that the quantity of protein added to each well was 15 μg.
Sodium dodecyl sulfate polyacrylamide gel electrophoresis (SDS-PAGE) was performed by setting a running time of 100 minutes at 120 V on a 4-15% Mini-PROTEAN TGX stain-free gel (15 well). Transferring was performed on iBlot® 2 NC Mini stacks at P0 mode of the dry blotting system. […]

| SMILES | DC50 [µM] |
| --- | --- |
| Cc1ncsc1-c1ccc(CNC(=O)[C@@H]2C[C@@H](O)CN2C(=O)[C@@H](NC(=O)COCCOCCOCCOCCNC(=O)O[C@H]2C[C@@H](C)C=C3C=C[C@H](C)[C@H](CC[C@@H]4C[C@@H](O)CC(=O)O4)[C@H]32)C(C)(C)C)cc1 [Compound 17, (1S,3R,7S,8S,8aR)-8-(2-((2R,4R)-4-hydroxy-6-oxotetrahydro-2H-pyran-2-yl)ethyl)-3,7-dimethyl-1,2,3,7,8,8a-hexahydronaphthalen-1-yl ((S)-16-((2S,4R)-4-hydroxy-2-((4-(4-methylthiazol-5-yl)benzyl)carbamoyl)pyrrolidine-1-carbonyl)-17,17-dimethyl-14-oxo-3,6,9,12-tetraoxa-15-azaoctadecyl)carbamate] | < 0.05 |
| Cc1ncsc1-c1ccc(CNC(=O)[C@@H]2C[C@@H](O)CN2C(=O)[C@@H](NC(=O)COCCOCCOCCOCCOCCNC(=O)O[C@H]2C[C@@H](C)C=C3C=C[C@H](C)[C@H](CC[C@@H]4C[C@@H](O)CC(=O)O4)[C@H]32)C(C)(C)C)cc1 [Compound 18, (1S,3R,7S,8S,8aR)-8-(2-((2R,4R)-4-hydroxy-6-oxotetrahydro-2H-pyran-2-yl)ethyl)-3,7-dimethyl-1,2,3,7,8,8a-hexahydronaphthalen-1-yl ((S)-19-((2S,4R)-4-hydroxy-2-((4-(4-methylthiazol-5-yl)benzyl)carbamoyl)pyrrolidine-1-carbonyl)-20,20-dimethyl-17-oxo-3,6,9,12,15-pentaoxa-18-azahenicosyl)carbamate] | < 0.05 |
| Cc1ncsc1-c1ccc(CNC(=O)[C@@H]2C[C@@H](O)CN2C(=O)[C@@H](NC(=O)COCCOCCNC(=O)O[C@H]2C[C@@H](C)C=C3C=C[C@H](C)[C@H](CC[C@@H]4C[C@@H](O[Si](C)(C)C(C)(C)C)CC(=O)O4)[C@H]32)C(C)(C)C)cc1 [Compound 19, (1S,3R,7S,8S,8aR)-8-(2-((2R,4R)-4-((tert-butyldimethylsilyl)oxy)-6-oxotetrahydro-2H-pyran-2-yl)ethyl)-3,7-dimethyl-1,2,3,7,8,8a-hexahydronaphthalen-1-yl (2-(2-(2-(((S)-1-((2S,4R)-4-hydroxy-2-((4-(4-methylthiazol-5-yl)benzyl)carbamoyl)pyrrolidin-1-yl)-3,3-dimethyl-1-oxobutan-2-yl)amino)-2-oxoethoxy)ethoxy)ethyl)carbamate] | < 0.05 |
| Cc1ncsc1-c1ccc(CNC(=O)[C@@H]2C[C@@H](O)CN2C(=O)[C@@H](NC(=O)COCCOCCOCCNC(=O)O[C@H]2C[C@@H](C)C=C3C=C[C@H](C)[C@H](CC[C@@H]4C[C@@H](O[Si](C)(C)C(C)(C)C)CC(=O)O4)[C@H]32)C(C)(C)C)cc1 [Compound 20, (1S,3R,7S,8S,8aR)-8-(2-((2R,4R)-4-((tert-butyldimethylsilyl)oxy)-6-oxotetrahydro-2H-pyran-2-yl)ethyl)-3,7-dimethyl-1,2,3,7,8,8a-hexahydronaphthalen-1-yl ((S)-13-((2S,4R)-4-hydroxy-2-((4-(4-methylthiazol-5-yl)benzyl)carbamoyl)pyrrolidine-1-carbonyl)-14,14-dimethyl-11-oxo-3,6,9-trioxa-12-azapentadecyl)carbamate] | < 0.05 |
| Cc1ncsc1-c1ccc(CNC(=O)[C@@H]2C[C@@H](O)CN2C(=O)[C@@H](NC(=O)COCCOCCOCCOCCNC(=O)O[C@H]2C[C@@H](C)C=C3C=C[C@H](C)[C@H](CC[C@@H]4C[C@@H](O[Si](C)(C)C(C)(C)C)CC(=O)O4)[C@H]32)C(C)(C)C)cc1 [Compound 21, (1S,3R,7S,8S,8aR)-8-(2-((2R,4R)-4-((tert-butyldimethylsilyl)oxy)-6-oxotetrahydro-2H-pyran-2-yl)ethyl)-3,7-dimethyl-1,2,3,7,8,8a-hexahydronaphthalen-1-yl ((S)-16-((2S,4R)-4-hydroxy-2-((4-(4-methylthiazol-5-yl)benzyl)carbamoyl)pyrrolidine-1-carbonyl)-17,17-dimethyl-14-oxo-3,6,9,12-tetraoxa-15-azaoctadecyl)carbamate] | < 0.05 |
| Cc1ncsc1-c1ccc(CNC(=O)[C@@H]2C[C@@H](O)CN2C(=O)[C@@H](NC(=O)COCCOCCOCCOCCOCCNC(=O)O[C@H]2C[C@@H](C)C=C3C=C[C@H](C)[C@H](CC[C@@H]4C[C@@H](O[Si](C)(C)C(C)(C)C)CC(=O)O4)[C@H]32)C(C)(C)C)cc1 [Compound 22, (1S,3R,7S,8S,8aR)-8-(2-((2R,4R)-4-((tert-butyldimethylsilyl)oxy)-6-oxotetrahydro-2H-pyran-2-yl)ethyl)-3,7-dimethyl-1,2,3,7,8,8a-hexahydronaphthalen-1-yl ((S)-19-((2S,4R)-4-hydroxy-2-((4-(4-methylthiazol-5-yl)benzyl)carbamoyl)pyrrolidine-1-carbonyl)-20,20-dimethyl-17-oxo-3,6,9,12,15-pentaoxa-18-azahenicosyl)carbamate] | < 0.05 |
| Cc1ncsc1-c1ccc(CNC(=O)[C@@H]2C[C@@H](O)CN2C(=O)[C@@H](NC(=O)C2(F)CC2)C(C)(C)C)c(OCCOCCNC(=O)O[C@H]2C[C@@H](C)C=C3C=C[C@H](C)[C@H](CC[C@@H]4C[C@@H](O)CC(=O)O4)[C@H]32)c1 [Compound 23, (1S,3R,7S,8S,8aR)-8-(2-((2R,4R)-4-hydroxy-6-oxotetrahydro-2H-pyran-2-yl)ethyl)-3,7-dimethyl-1,2,3,7,8,8a-hexahydronaphthalen-1-yl (2-(2-(2-(((2S,4R)-1-((S)-2-(1-fluorocyclopropane-1-carboxamido)-3,3-dimethylbutanoyl)-4-hydroxypyrrolidine-2-carboxamido)methyl)-5-(4-methylthiazol-5-yl)phenoxy)ethoxy)ethyl)carbamate] | < 0.05 |
